# Reference: article PMC3684613 (PLoS ONE, 2013)
# Like-named read-outs stand apart in the source and are kept apart here.
# What was measured:
# [1] = test system: P. falciparum 3D7; experiment: DAPI stain fluorescent high content imaging assay, P. falciparum 3D7 (confirmatory screen, Avery); details: for EC50 / inhibition of growth at 5 µM / inhibition of growth at 2 µM: Plasmodium falciparum; for EC50: 3D7, read-out: EC50_nM; for inhibition of growth at 5 µM: 3D7, read-out: percent_inh @ 5 uM; for inhibition of growth at 2 µM: 3D7, read-out: percent_inh @ 2 uM
# [2] = test system: P. falciparum 3D7; set-up: method as in ChEMBL-NTD; details: ref ChEMBL-NTD, cited from earlier work
# [3] = values follow the order of the source (GNF; GSK; StJude)
# [4] = original screening data, source (GSK, GNF, StJude), several values separated by ';' in order of sources
Compound,EC50 [1],inhibition of growth at 5 µM [1],further results
COc1ccc(OC)c(C2C3=C(CC(C)(C)CC3=O)N(c3ccc(Cl)c(Cl)c3)C3=C2C(=O)CC(C)(C)C3)c1 [MMV007208],912 nM,90%,EC50 ([2]; source GNF (GNF-Pf ids)): 430 nM
CCOC(=O)C1=CN(C)C=C(C(=O)OCC)C1c1cc(Br)c(OCC)c(OC)c1 [MMV006656],518 nM,97%,"EC50 [2, 3]: 913 nM"
COc1ccc(-c2nonc2NC(=O)c2cccc(Cl)c2)cc1OC [MMV020660],,,"% inh. At 2.5 uM ([1]; 2.5 uM (Comment column; solubility issue at 5 uM)): 97%; EC50 [2, 4]: 876 nM"
CCOc1ccc(-c2nc(NC(=O)c3cccc(S(C)(=O)=O)c3)sc2C)cc1 [MMV665913],,95%,EC50 ([2]; source StJude): 15000 nM
COc1ccc(Nc2cc(C)nc(NCc3ccccc3)n2)cc1 [MMV006825],467 nM,,"EC50 [2, 3]: 151 nM"
COc1ccc(CCNC(=O)c2cc(S(=O)(=O)N3CC(C)CC(C)C3)ccc2Sc2ccc(F)cc2)cc1OC (centres unmarked) [MMV007557],632 nM,97%,EC50 ([2]; source GNF (GNF-Pf ids)): 1050 nM
O=C(Nc1ccc(C23CC4CC(CC(c5ccccc5)(C4)C2)C3)cc1)c1cccs1 [MMV007574],826 nM,96%,EC50 ([2]; source GNF (GNF-Pf ids)): 645 nM
CN(C)CCNc1cc(-c2ccccc2)nc2ccccc12 [MMV006704],4000 nM,,"inhibition of growth at 2 µM [1]: 92%; EC50 [2, 4]: 692 nM"
Cc1ccc(-c2cc3nc4c(c(O)n3n2)CCCC4)cc1 [MMV006937],396 nM,73%,EC50 ([2]; source GNF (GNF-Pf id)): 1600 nM
O=C(NCc1ccco1)C1CCN(S(=O)(=O)c2ccc(Br)cc2)CC1 [MMV007430],939 nM,93%,"EC50 [2, 4]: 362 nM"
Cc1cc(=O)oc2c1ccc1oc(C(=O)c3ccccc3)c(C)c12 [MMV006753],,94%,EC50 ([2]; source GNF (GNF-Pf ids)): 441 nM
CCOC(=O)c1cnc2ccc(OC)cc2c1NCc1ccccc1 [MMV665813],,87%,"EC50 [2, 3]: 2770 nM"
CCCCCCOC(=O)C1=C(C)NC(=O)NC1c1ccccc1F (centres unmarked) [MMV007686],106 nM,95%,EC50 ([2]; source GNF (GNF-Pf id)): 6760 nM
CC(C)(C)c1ccc2c(c1)CN(Cc1ccc(Cl)cc1)CO2 [MMV000442],362 nM,98%,EC50 ([2]; source StJude (SJ ids)): 255 nM
Cc1ccc(Nc2nc(NCCO)c3ccccc3n2)cc1C [MMV001038],428 nM,,EC50 ([2]; source GNF (GNF-Pf id)): 175 nM; EC50 ([2]; source StJude (SJ id)): 843 nM
CC(C)(C)c1ccc(C(=O)Nc2c3c(nn2-c2cccc(Cl)c2)CSC3)cc1 [MMV666123],,93%,EC50 ([2]; source StJude (SJ ids)): 15000 nM
CCOC(=O)c1cnc2ccc(CC)cc2c1O [MMV007116],351 nM,,EC50 ([2]; source GNF (GNF-Pf id)): 716 nM
COc1cc2c3cc1Oc1c(OC)c(OC)cc4c1C(Cc1ccc(O)c(c1)Oc1ccc(cc1)CC3N(C)CC2)N(C)CC4 (centres unmarked) [MMV007474],1270 nM,96%,"EC50 [2, 3]: 997 nM"
O=c1nc(C=Cc2ccc(Br)cc2)oc2ccccc12 [MMV666599],,94%,EC50 ([2]; source GSK (TCMDC ids)): 1050 nM
Clc1ccc2c(N3CCCC3)ccnc2c1 [MMV007363],944 nM,97%,"EC50 [2, 4]: 283 nM"
CCCCCCn1c(=N)n(CC(O)COc2cccc(C)c2)c2ccccc21 (centres unmarked) [MMV000445],1140 nM,98%,EC50 ([2]; source StJude (SJ ids)): 1970 nM
CN(C)c1ccc(N=Cc2ccc(N3CCOCC3)cc2)cc1 [MMV073843],,96%,"EC50 [2, 3]: 175 nM"
CCOc1c(Br)cc(C2C(C(=O)OC)=CN(C)C=C2C(=O)OC)cc1OC [MMV006764],512 nM,96%,EC50 ([2]; source GNF (GNF-Pf ids)): 292 nM
CCOc1ccc(Nc2ccnc3cc(Cl)ccc23)cc1 [MMV007285],4000 nM,,"inhibition of growth at 2 µM [1]: 94%; EC50 [2, 3]: 956 nM"
COc1ccc(C(=O)Nc2ccc3nc(N4CCCCC4)cc(C)c3c2)cc1OC [MMV019758],,76%,EC50 ([2]; source GSK): 994 nM
CCC1(C)CC(CCNCc2ccccc2O)(c2ccc(C)cc2)CCO1 (centres unmarked) [MMV019406],142 nM,97%,EC50 ([2]; source GSK (TCMDC id)): 38.8 nM
N=c1c2ccccc2nnn1-c1cccc(C(F)(F)F)c1 [MMV665923],,83%,EC50 ([2]; source GNF (GNF-Pf ids)): 134 nM
c1ccc2c(NCCc3c[nH]c4ccccc34)c3ccccc3nc2c1 [MMV006513],304 nM,97%,EC50 ([2]; source GNF (GNF-Pf ids)): 86 nM
Cc1ccccc1OCCSc1nc2ccc(NC(=O)c3cccs3)cc2s1 [MMV007396],697 nM,96%,EC50 ([2]; source GNF (GNF-Pf ids)): 497 nM

# The next lines start with results.
EC50 [1],Compound,inhibition of growth at 5 µM [1],further results
274 nM,CC1CCN(Cc2ccc(NC(=O)c3cc4ccc5cccnc5c4[nH]3)cc2)CC1 [MMV020549],97%,EC50 ([2]; source GSK (TCMDC id)): 779 nM
1720 nM,O=C(NCC1Cc2cccc(-c3ccncc3)c2O1)c1csc2c1CCCC2 (centres unmarked) [MMV665954],87%,EC50 ([2]; source StJude): 8740 nM
795 nM,O=C1c2ccc3c4c(ccc(c24)C(=O)N1CCCCO)C(=O)N(CCCCO)C3=O [MMV009085],97%,"EC50 [2, 3]: 354 nM"
830 nM,COc1ccc(C(=O)NC(c2ccccc2Cl)c2cc(Cl)c3cccnc3c2O)cc1 (centres unmarked) [MMV666022],96%,EC50 ([2]; source GNF (GNF-Pf ids)): 2370 nM
489 nM,CCOC(=O)C1=C(C)N=c2sc(=Cc3cc(Cl)ccc3O)c(=O)n2C1c1ccc(OC)cc1 (centres unmarked) [MMV665971],97%,EC50 ([2]; source GSK (TCMDC ids)): 746 nM; EC50 ([2]; source StJude (SJ ids)): 15000 nM
350 nM,Cc1ccc(Nc2nc(-c3ccccn3)cs2)cc1 [MMV007907],79%,EC50 ([2]; source GNF): 407 nM
1110 nM,CCCn1c(=N)c(C(=O)NC2CCCCC2)cc2c(=O)n3cccc(C)c3nc21 [MMV008829],96%,EC50 ([2]; source GNF): 460 nM
663 nM,COc1ccc(CNC2CCN(c3ccc(NC(=O)c4cccc(Cl)c4)cc3)CC2)cc1OC [MMV666067],97%,EC50 ([2]; source GSK): 1020 nM
1510 nM,CCOC(=O)C1=C(C)N=c2sc(=Cc3ccccc3O)c(=O)n2C1c1ccc(OC)c2ccccc12 (centres unmarked) [MMV666604],97%,EC50 ([2]; source GSK (TCMDC ids)): 1260 nM
387 nM,CCCCCCc1cc2cc(-c3csc(C=Cc4ccccc4)n3)c(=O)oc2cc1O [MMV666692],92%,"EC50 [2, 3]: 970 nM"
548 nM,Oc1ccccc1CN1CCC2(CCCN(Cc3ccccc3F)C2)C1 (centres unmarked) [MMV666116],98%,"EC50 [2, 4]: 679 nM"
1330 nM,Cc1ccc(Cl)cc1N1CCN(CCCNC(=O)C2CCN(c3nc4ccccc4[nH]3)CC2)CC1 [MMV019746],97%,EC50 ([2]; source GSK): 895 nM
1170 nM,O=C(NC(c1ccccc1)c1ccc2cccnc2c1O)c1ccccc1 (centres unmarked) [MMV666080],95%,EC50 ([2]; source GNF): 533 nM; EC50 ([2]; source GSK): 428 nM
1330 nM,Cc1ccc(C)c(Cn2c(N3CCC(C(=O)NCc4cccs4)CC3)nc3ccccc32)c1 [MMV019741],97%,EC50 ([2]; source GSK (TCMDC ids)): 938 nM
1370 nM,CCOc1cc(Cl)c(C(C)NC(=O)c2ccccc2)cc1OCC (centres unmarked) [MMV665800],96%,EC50 ([2]; source GSK): 875 nM
545 nM,Cn1c(=O)n(C)c2cc(CNCCNc3ccnc4cc(Cl)ccc34)ccc21 [MMV665875],90%,"EC50 [2, 3]: 140 nM"
646 nM,Oc1ccc2ccccc2c1CNc1nc2ccccc2[nH]1 [MMV011832],83%,"EC50 [2, 3]: 652 nM"
216 nM,CCOC(=O)c1c(C)n(-c2ccc(Cl)cc2)c2ccc(OC(=O)C=Cc3ccccc3)cc12 [MMV666600],97%,EC50 ([2]; source GSK (TCMDC id)): 698 nM
642 nM,CCC(C)NCC(O)(c1ccc(Cl)cc1)c1ccc(Cl)cc1 (centres unmarked) [MMV665928],98%,EC50 ([2]; source GNF): 639 nM; EC50 ([2]; source GSK): 843 nM
1070 nM,c1ccc(-c2ccc(-c3nc4ccccc4[nH]3)cc2)cc1 [MMV665891],52%,EC50 ([2]; source GSK): 809 nM
693 nM,Cc1cc(NC(=O)c2ccc(-c3ccccc3)cc2)no1 [MMV018984],95%,"EC50 [2, 4]: 1020 nM"
1160 nM,CC(C)=CCN1CCC(C(=O)Nc2ccc(-c3nc4ccccc4[nH]3)cc2)CC1 [MMV665946],96%,EC50 ([2]; source GSK): 908 nM; EC50 ([2]; source StJude): 1340 nM
735 nM,O=C(Nc1ccc(N2CCCCC2)c(Cl)c1)c1ccc(Br)o1 [MMV019700],96%,"EC50 [2, 4]: 549 nM"
782 nM,COc1cc(C(=O)ON=C(N)Cc2cccc3ccccc23)cc(OC)c1OC [MMV666687],99%,"EC50 [2, 3]: 280 nM"
685 nM,FC(F)(F)c1cccc(CNC2CCN(CCc3ccccc3)CC2)c1 [MMV665979],96%,EC50 ([2]; source GNF): 174 nM
350 nM,O=C(O)C1Cc2c([nH]c3ccccc23)C(c2ccc(Cl)cc2Cl)N1 (centres unmarked) [MMV008138],,EC50 ([2]; source GNF (GNF-Pf id)): 1020 nM; EC50 ([2]; source GSK (TCMDC id)): 954 nM
4000 nM,COc1cc(SC)ccc1C(=O)N1CCCC(C)C1 (centres unmarked) [MMV056726],,"inhibition of growth at 2 µM [1]: 45%; EC50 [2, 4]: 9810 nM"
140 nM,COc1ccccc1CNC(=O)CCn1c(=O)[nH]c2ccsc2c1=O [MMV019066],67%,EC50 ([2]; source GSK (TCMDC id)): 1040 nM
